Test results published in patent US20050158805A1, “Toxicity test” (priority 2002, published 2005).
One block for each molecule: values may come before it.

Columns and labels:
liver spheroids = assay: Spheroid cell spreading inhibition test (SCSIT) using fresh liver spheroids; type: cell-based, male Wistar rats; settings: for SCSIT result (spheroid cell spreading inhibition): fresh liver spheroids, batches A-C; for concentrations at which liver spheroid cell spreading is inhibited: liver spheroids, read from tables
Method: (§1) The inventors have developed a cell spreading inhibition test based on the observed spheroid cell growth, or “spreading” of cells in spheroids when the spheroids are grown on a suitable surface and at static state i.e. without shaking. […] This inhibition of cell spreading provides an indicator of toxicity.
(§2) According to a first aspect of the invention, there is provided an in vitro toxicity assay comprising: • a) exposing a spheroid sample to a selected concentration of a compound to be assayed; • b) incubating the spheroid sample for a suitable period of time; and • c) observing if spheroid cell spreading inhibition takes place. […] However, if there is observable cell spreading from one or more of the spheroids in the sample, this is a cell spreading inhibition negative (−) result.
(§3) In the following examples, fresh liver or HepG2 spheroids were used.
Liver spheroids were prepared from the liver of male Wistar rats by a two-step collagenase perfusion method described by Seglen P.O. ((1976). Preparation of isolated rat liver cells. Methods Cell. Biol. 13, 29-38) and modified by Lazar, A.; Peshwa, M. V., Wu, F. J., Chi, C. M., Cerra, F. B., and Hu, W. S. (1995). Extended liver-specific functions of procine hepatocyte spheroids entrapped in collagen gel. In Vitro Cell Biol Anim. 31, 340-346). Viability of the isolated liver cells was determined by tyrpan blue dye exclusion i.e. an aliquot of isolated liver cells was mixed with an equal volume of trypan blue dye (1.0% w/v in isotonic saline) and incubated at room temperature for a minimum period of 5 minutes. Only isolated liver cell preparations with viability above 80% were used to prepare liver spheroids. The cell suspension was diluted with culture medium (hepatocyte medium supplemented with 5% FCS, […] L-glutamine, 2 ng/ml insulin, 100 U/ml penicillin and 100 μg/ml streptomycin sulfate) to give a cell density of 5×10^5 cells/ml. The diluted cell suspension was dispersed into 6-well plates, 3 ml/well. The plates were incubated at 37° C., in a 5% CO2 incubator on a gyrotatory shaker (New Brunswick) at an initial rotation speed of 85 rpm for the first 24 hr and 77 rpm thereafter. The plates were rotated at this speed for the duration of the study (up to 45 days, but typically 2-10 days). 1.5 ml of old medium was replaced with 2.0 ml fresh medium for each well every other day. Media exchange was carried out over the duration of the study (up to 45 days, but typically 2-10 days).
(§4) 3 to 5 freshly prepared spheroids were transferred into each well of a 24 well plate and exposed to galactosamine at various concentrations as detailed in Tables 1 and 2. Two wells were used for each concentration of galactosamine. The spheroids were incubated in Hepatocyte medium (Sigma) supplemented with 10-15% FCS, […] L-glutamine, 100 U/ml penicillin and 100 μg/ml streptomycim sulfate, and placed in a 5% CO2 incubator at 37° C. and the effects on spheroid cell spreading inhibition observed after 48 hours exposure of the cells to galactosamine: […]

HepG2 spheroids = assay: Spheroid cell spreading inhibition test (SCSIT) using fresh HepG2 spheroids; type: cell-based, Human; settings: for SCSIT result (spheroid cell spreading inhibition): fresh HepG2 spheroids, batches A-C; for concentrations at which HepG2 spheroid cell spreading is inhibited: HepG2 spheroids, read from tables
Method: as §1, §2, §3
HepG2 cell line (Human Hepatocyte Carinomal cells, from ECACC) was cultured as a monolayer in a 75 cm^2 flask at an initial density of 10^2 cells/cm^2 in a culture medium containing MEM (Sigma) supplemented with 10% FBS, 200 nM L-Glutamine, 100 U/ml pencillin and 100 μg/ml streptomycin (GibcoBril). HepG2 cells of confluent flasks were detached by trypsin and pooled together to be counted by trypan blue dye excretion. The cell suspension was diluted with culture medium (MEM supplemented with 5% FBS, […] L-glutamine, 100 U/ml penicillin and 100 μg/ml streptomycin) to give 1×10^6 cell/ml cell suspension. The cell suspension was plated into 6-well plates, 3 ml/well. The plate was placed on a gyrotatory shaker (New Brunswick) at 83 rpm in a 37° C. CO2 incubator for the first 24 h, and then the rotation speed reduced to 77 rpm. After 6 DIV culture, spheroids were ready for use.
as §4

SCSIT result (spheroid cell spreading inhibition) (liver spheroids; 0.1 μM): − | SCSIT result (spheroid cell spreading inhibition) (liver spheroids; 1 μM): − | SCSIT result (spheroid cell spreading inhibition) (liver spheroids; 10 μM): − | SCSIT result (spheroid cell spreading inhibition) (liver spheroids; 100 μM): − | SCSIT result (spheroid cell spreading inhibition) (liver spheroids; 1000 μM): + | spheroid cell spreading inhibition (FIG. 4B) (liver spheroids; liver spheroid, 1000 μM, 48 hours after exposure): spheroid cell spreading was inhibited | concentrations at which liver spheroid cell spreading is inhibited (liver spheroids): ≥ 1000 µM | SCSIT result (spheroid cell spreading inhibition) (HepG2 spheroids; 0.1 μM): − | SCSIT result (spheroid cell spreading inhibition) (HepG2 spheroids; 1 μM): − | SCSIT result (spheroid cell spreading inhibition) (HepG2 spheroids; 10 μM): − | SCSIT result (spheroid cell spreading inhibition) (HepG2 spheroids; 100 μM): − | SCSIT result (spheroid cell spreading inhibition) (HepG2 spheroids; 1000 μM): + | concentrations at which HepG2 spheroid cell spreading is inhibited (HepG2 spheroids): ≥ 1000 µM
SMILES: O=C(O)Cc1ccccc1Nc1c(Cl)cccc1Cl [diclofenac]
spheroid cell spreading inhibition (FIG. 4A) (liver spheroids; liver spheroid, 100 μM, 48 hours after exposure): no spheroid cell spreading inhibition is observed

SCSIT result (spheroid cell spreading inhibition) (liver spheroids; 4 mM, 48 hours exposure): − | SCSIT result (spheroid cell spreading inhibition) (liver spheroids; 10 mM, 48 hours exposure): − | SCSIT result (spheroid cell spreading inhibition) (liver spheroids; 16 mM, 48 hours exposure): − | SCSIT result (spheroid cell spreading inhibition) (liver spheroids; 20 mM, 48 hours exposure): + | SCSIT result (spheroid cell spreading inhibition) (liver spheroids; 40 mM, 48 hours exposure): + | spheroid cell spreading inhibition (FIG. 2C) (liver spheroids; liver spheroid, 40 mM, 48 hours after exposure): spheroid cell spreading was inhibited | concentrations at which liver spheroid cell spreading is inhibited (liver spheroids): ≥ 20000 µM | SCSIT result (spheroid cell spreading inhibition) (HepG2 spheroids; 4 mM, 48 hours exposure): − | SCSIT result (spheroid cell spreading inhibition) (HepG2 spheroids; 10 mM, 48 hours exposure): − | SCSIT result (spheroid cell spreading inhibition) (HepG2 spheroids; 16 mM, 48 hours exposure): + | SCSIT result (spheroid cell spreading inhibition) (HepG2 spheroids; 20 mM, 48 hours exposure): + | SCSIT result (spheroid cell spreading inhibition) (HepG2 spheroids; 40 mM, 48 hours exposure): + | concentrations at which HepG2 spheroid cell spreading is inhibited (HepG2 spheroids): ≥ 16000 µM
SMILES: N[C@H]1C(O)O[C@H](CO)[C@H](O)[C@@H]1O (stereo partly drawn) [galactosamine]
spheroid cell spreading inhibition (FIG. 2B) (liver spheroids; liver spheroid, 16 mM, 48 hours after exposure): no spheroid cell spreading inhibition is observed

SCSIT result (spheroid cell spreading inhibition) (liver spheroids; 5 μM): − | SCSIT result (spheroid cell spreading inhibition) (liver spheroids; 50 μM): − | SCSIT result (spheroid cell spreading inhibition) (liver spheroids; 500 μM): − | SCSIT result (spheroid cell spreading inhibition) (liver spheroids; 5 mM): − | SCSIT result (spheroid cell spreading inhibition) (liver spheroids; 50 mM): + | spheroid cell spreading inhibition (FIG. 5B) (liver spheroids; liver spheroid, 50 mM, 48 hours after exposure): spheroid cell spreading was inhibited | concentrations at which liver spheroid cell spreading is inhibited (liver spheroids): ≥ 50000 µM | SCSIT result (spheroid cell spreading inhibition) (HepG2 spheroids; 5 μM): − | SCSIT result (spheroid cell spreading inhibition) (HepG2 spheroids; 50 μM): − | SCSIT result (spheroid cell spreading inhibition) (HepG2 spheroids; 500 μM): − | SCSIT result (spheroid cell spreading inhibition) (HepG2 spheroids; 5 mM): − | SCSIT result (spheroid cell spreading inhibition) (HepG2 spheroids; 50 mM): + | concentrations at which HepG2 spheroid cell spreading is inhibited (HepG2 spheroids): ≥ 50000 µM
SMILES: CC(=O)Nc1ccc(O)cc1 [paracetamol]
spheroid cell spreading inhibition (FIG. 5A) (liver spheroids; liver spheroid, 5 mM, 48 hours after exposure): no spheroid cell spreading inhibition is observed
